Measurements: patent publication US5106871A, “Anti-ulcer agent comprising chalcone derivative as effective ingredient and novel chalcone derivative” (Tsumura & Co., priority 1986, dated 1992)
Where two headings read alike, the source gives them in different places.

How the values were obtained:
Type in all cases: in vivo, male rats of the Wister line
gastric mucous membrane [1] = test: 100% ethanol-induced gastric mucous membrane damage in rats (Experimental Example 1)
Protocol: After 1 hour from the administration of 100% ethanol, the abdominal operation was carried out, and the length of the damaged region on the gastric mucous membrane was measured as the mucous membrane damage coefficient and compared with the value obtained in the control group. Note, a 0.5% solution of CMC not containing a compound of formula I was intraabdominally or orally administered in the control group.

gastric mucous membrane [2] = test: 0.6N hydrochloric acid-induced gastric mucous membrane damage in rats (Experimental Example 2); conditions: for Inhibition Ratio: vs control
Protocol: A suspension of a compound of formula I in a […] of CMC (carboxymethyl cellulose) was intraabdominally administered in male rats of the Wister line (each group consisting of 10 rats) having a body weight of 180 to 200 g, which had been made to fast for 24 hours, and after 30 minutes, 1 ml of 0.6N hydrochloric acid was orally administered. After 1 hour from the administration of 0.6N hydrochloric acid, the abdominal operation was carried out, and the length of the damage on the gastric mucous membrane was measured as the mucous membrane damage coefficient and compared with the value obtained in the control group in the control group. Note, a 0.5% solution of CMC was intraabdominally administered. Data of the inhibition ratio calculated according to the following formula is shown in Tables 5 through 7: [formula] wherein A stands for the value obtained in the control group and B stands for the value obtained in the group in which the compound of formula I had been administered.

gastric mucous membrane [3] = test: 150 mM hydrochloric acid/60% ethanol-induced gastric mucous membrane damage in rats (Experimental Example 3); conditions: 150 mM HCl/60% ethanol; for Inhibition Ratio: vs control
Protocol: A suspension of a compound of formula I in a 0.5 % solution of CMC (carboxymethyl cellulose) was intraabdominally or orally administered in male rats of the Wister line (each group consisting of 10 rats) having a body weight of 180 to 200 g, which had been made to fast for 24 hours, and after 30 minutes, 1 ml of a liquid mixture of 150 mM hydrochloric acid and 60% ethanol was orally administered. After 1 hour from the administration of the liquid mixture of 150 mM hydrochloric acid and 60% ethanol, the abdominal operation was carried out, and the length of the damage on the gastric mucous membrane was measured as the mucous membrane damage coefficient and compared with the value obtained in the control group. Note, a 0.5% solution of CMC not containing a compound of formula I was intra-abdominally or orally administered in the control group. Data of the inhibition ratio calculated according to the following formula is shown in Tables 8 through 10: [formula] wherein A stands for the value obtained in the control group and B stands for the value obtained in the group in which the compound of formula I had been administered.

[4] = Rattus norvegicus, po, 1 h, Table 2, 100 mg/kg p.o., vs control, read-out: Inhibition Ratio
[5] = Table 2, 100 mg/kg p.o., control 87.7
[6] = Rattus norvegicus, ip, 1 h, Table 3, 100 mg/kg i.p., vs control, read-out: Inhibition Ratio
[7] = Table 3, 100 mg/kg i.p., control 72.63
[8] = Table 6, 100 mg/kg i.p., control 106.3
[9] = Table 9, 30 mg/kg p.o., control 84.3
[10] = Table 10, 30 mg/kg i.p., control 110.7
[11] = Rattus norvegicus, ip, 1 h, Table 4, 100 mg/kg i.p., vs control, read-out: Inhibition Ratio
[12] = Table 4, 100 mg/kg i.p., control 72.3
[13] = Table 8, 100 mg/kg p.o., control 119.0

COc1ccc(CCC(=O)c2ccc(OC)c(CCC(C)C)c2OCC(=O)O)cc1 [Specific Example 3, 1-(carboxymethoxy-4-methoxy-3-isopentylphenyl)-3-(4-methoxyphenyl)-1-propanone]
inhibition in vivo at 100 mg/kg (gastric mucous membrane [1]; Rattus norvegicus, ip, 1 h, Table 1, 100 mg/kg i.p., vs control, read-out: Inhibition Ratio): 63.4%
inhibition in vivo at 100 mg/kg (gastric mucous membrane [1]; [4]): 93.2%
Mucous Membrane Damage Coefficient (gastric mucous membrane [1]; Table 1, 100 mg/kg i.p., control 102.6): 37.6 mm
Mucous Membrane Damage Coefficient (gastric mucous membrane [1]; [5]): 6.0 mm
Mucous Membrane Damage Coefficient (gastric mucous membrane [2]; Table 5, 100 mg/kg i.p., control 65.8): 61.8 mm
Inhibition Ratio (gastric mucous membrane [2]; Table 5, 100 mg/kg i.p.): 68.1%

COc1cc(CCC(=O)c2c(OC)cc(OC)c(CCC(C)C)c2OCC(=O)O)ccc1O [Specific Example 5, 1-(2-carboxymethoxy-4,6-dimethoxy-3-isopentylphenyl)-3-(4-hydroxy-3-methoxyphenyl)-1-propanone]
inhibition in vivo at 100 mg/kg (gastric mucous membrane [1]; [6]): 27.9%
Mucous Membrane Damage Coefficient (gastric mucous membrane [1]; [7]): 52.38 mm

COc1ccc(CCC(=O)c2c(OC)cc(OC)c(CCC(C)C)c2OCC(=O)O)cc1O [Specific Example 6, 1-(2-carboxymethoxy-4,6-dimethoxy-3-isopentylphenyl)-3-(3-hydroxy-4-methoxyphenyl)-1-propanone]
inhibition in vivo at 100 mg/kg (gastric mucous membrane [1]; [6]): 32.4%
Mucous Membrane Damage Coefficient (gastric mucous membrane [1]; [7]): 49.13 mm

COc1cc(CCC(=O)c2c(OC)cc(OC)c(CCC(C)C)c2OCC(=O)O)cc(OC)c1O [Specific Example 7, 1-(2-carboxymethoxy-4,6-dimethoxy-3-isopentylphenyl)-3-(4-hydroxy-3,5-dimethoxyphenyl)-1-propanone]
inhibition in vivo at 100 mg/kg (gastric mucous membrane [1]; [6]): 32.5%
Mucous Membrane Damage Coefficient (gastric mucous membrane [1]; [7]): 49.00 mm

COc1ccc(/C=C/C(=O)c2ccc(OC)c(CC=C(C)C)c2OCC(=O)O)cc1 [Specific Example 8, 2'-carboxymethoxy-4,4'-dimethoxy-3'-(3-methyl-2-butenyl)chalcone]
inhibition in vivo at 100 mg/kg (gastric mucous membrane [1]; [6]): 78.5%
Mucous Membrane Damage Coefficient (gastric mucous membrane [1]; [7]): 15.63 mm
Mucous Membrane Damage Coefficient (gastric mucous membrane [2]; [8]): 62.4 mm
Inhibition Ratio (gastric mucous membrane [2]; Table 6, 100 mg/kg i.p.): 41.3%

COc1ccc(/C=C/C(=O)c2c(OC)cc(OC)c(CCC(C)C)c2OCC(=O)O)cc1 [Specific Example 9, 2'-carboxymethoxy-4,4',6'-trimethoxy-3'-isopentylchalcone]
inhibition in vivo at 100 mg/kg (gastric mucous membrane [1]; [6]): 93.1%
Mucous Membrane Damage Coefficient (gastric mucous membrane [1]; [7]): 5.00 mm
Mucous Membrane Damage Coefficient (gastric mucous membrane [2]; [8]): 39.6 mm
Inhibition Ratio (gastric mucous membrane [2]; Table 6, 100 mg/kg i.p.): 62.3%

COc1ccc(CCC(=O)c2c(OC)cc(OC)cc2OCC(=O)O)cc1 [Specific Example 11, 1-(2-carboxymethoxy-4,6-dimethoxyphenyl)-3-(4-methoxyphenyl)-1-propanone]
inhibition in vivo at 100 mg/kg (gastric mucous membrane [1]; [6]): 92.8%
Mucous Membrane Damage Coefficient (gastric mucous membrane [1]; [7]): 5.25 mm
Mucous Membrane Damage Coefficient (gastric mucous membrane [2]; [8]): 36.6 mm
Inhibition Ratio (gastric mucous membrane [2]; Table 6, 100 mg/kg i.p.): 65.6%

COc1ccc(CCC(=O)c2c(OC)cc(OC)c(CC=C(C)C)c2OCC(=O)O)cc1 [Specific Example 12, 1-[2-carboxymethoxy-4,6-dimethoxy-3-(3-methyl-2-butenyl)phenyl]-3-(4-methoxyphenyl) -propanone]
inhibition in vivo at 100 mg/kg (gastric mucous membrane [1]; [6]): 43.2%
Mucous Membrane Damage Coefficient (gastric mucous membrane [1]; [7]): 41.25 mm
Mucous Membrane Damage Coefficient (gastric mucous membrane [2]; [8]): 76.6 mm
Inhibition Ratio (gastric mucous membrane [2]; Table 6, 100 mg/kg i.p.): 27.8%

O=C(/C=C/c1ccc(O)cc1)c1ccc(O)cc1O [Specific Example 15, 2',4,4'-trihydroxychalcone]
Mucous Membrane Damage Coefficient (gastric mucous membrane [3]; [9]): 30.0 mm
Inhibition Ratio (gastric mucous membrane [3]; Table 9, 30 mg/kg p.o.): 64.4%
Mucous Membrane Damage Coefficient (gastric mucous membrane [3]; [10]): 49.5 mm
Inhibition Ratio (gastric mucous membrane [3]; Table 10, 30 mg/kg i.p.): 55.3%

COc1ccc(/C=C/C(=O)c2ccc(OC)c(CC=C(C)C)c2O)cc1 [Specific Example 16, 2'-hydroxy-4,4'-dimethoxy-3'-(3-methyl-2-butenyl)chalcone]
inhibition in vivo at 100 mg/kg (gastric mucous membrane [1]; [11]): 36.4%
Mucous Membrane Damage Coefficient (gastric mucous membrane [1]; [12]): 46.0 mm

O=C(/C=C/c1ccc(O)c(O)c1)c1ccc(O)cc1O [Specific Example 19, 2',3,4,4'-tetrahydroxychalcone]
Mucous Membrane Damage Coefficient (gastric mucous membrane [3]; [9]): 10.5 mm
Inhibition Ratio (gastric mucous membrane [3]; Table 9, 30 mg/kg p.o.): 87.5%

O=C(CCc1ccc(O)cc1)c1ccc(O)cc1O [Specific Example 22, 1-(2,4-dihydroxyphenyl)-3-(4-hydroxyphenyl)-1-propanone]
Mucous Membrane Damage Coefficient (gastric mucous membrane [3]; [13]): 1.4 mm
Inhibition Ratio (gastric mucous membrane [3]; Table 8, 100 mg/kg p.o.): 98.8%
Mucous Membrane Damage Coefficient (gastric mucous membrane [3]; [9]): 57.2 mm
Inhibition Ratio (gastric mucous membrane [3]; Table 9, 30 mg/kg p.o.): 32.1%
Mucous Membrane Damage Coefficient (gastric mucous membrane [3]; [10]): 54.2 mm
Inhibition Ratio (gastric mucous membrane [3]; Table 10, 30 mg/kg i.p.): 51.0%

O=C(CCc1ccc(O)cc1)c1c(O)cc(O)cc1O [Specific Example 23, 1-(2,4,6-trihydroxyphenyl)-3-(4-hydroxyphenyl)-1-propanone]
inhibition in vivo at 100 mg/kg (gastric mucous membrane [1]; [11]): 36.7%
Mucous Membrane Damage Coefficient (gastric mucous membrane [1]; [12]): 45.8 mm
Mucous Membrane Damage Coefficient (gastric mucous membrane [3]; [13]): 67.9 mm
Inhibition Ratio (gastric mucous membrane [3]; Table 8, 100 mg/kg p.o.): 43.0%

CC(=O)Oc1c(CC=C(C)C)c(O)cc(O)c1C(=O)CCc1ccc(O)cc1 [Specific Example 24, 1-[2-acetoxy-4,6-hydroxy-3-(3-methyl-2-butenyl)phenyl]-3-(4-hydroxyphenyl)-1-propanone]
inhibition in vivo at 100 mg/kg (gastric mucous membrane [1]; [11]): 23%
Mucous Membrane Damage Coefficient (gastric mucous membrane [1]; [12]): 55.7 mm

O=C(CCc1ccc(O)c(O)c1)c1ccc(O)cc1O [Specific Example 27, 1-(2,4-dihydroxyphenyl)-3-(3,4-dihydroxyphenyl)-1-propanone]
Mucous Membrane Damage Coefficient (gastric mucous membrane [3]; [9]): 1.5 mm
Inhibition Ratio (gastric mucous membrane [3]; Table 9, 30 mg/kg p.o.): 98.2%
Mucous Membrane Damage Coefficient (gastric mucous membrane [3]; [10]): 60.0 mm
Inhibition Ratio (gastric mucous membrane [3]; Table 10, 30 mg/kg i.p.): 45.8%

O=C(CCc1ccc(O)c(O)c1)c1c(O)cc(O)cc1O [Specific Example 28, 1-(2,4,6-trihydroxyphenyl)-3-(3,4-dihydroxyphenyl)-1-propanone]
inhibition in vivo at 100 mg/kg (gastric mucous membrane [1]; [11]): 90%
Mucous Membrane Damage Coefficient (gastric mucous membrane [1]; [12]): 7.2 mm
Mucous Membrane Damage Coefficient (gastric mucous membrane [3]; [13]): 15.7 mm
Inhibition Ratio (gastric mucous membrane [3]; Table 8, 100 mg/kg p.o.): 86.8%

CC(C)CCc1c(O)cc(O)c(C(=O)CCc2ccc(O)cc2)c1OCC(=O)O [Specific Example 32, 1-(2-carboxymethoxy-4,6-dihydroxy-3-isopentylphenyl)-3-(4-hydroxyphenyl)-1-propanone]
inhibition in vivo at 100 mg/kg (gastric mucous membrane [1]; [11]): 61.3%
Mucous Membrane Damage Coefficient (gastric mucous membrane [1]; [12]): 28.0 mm

COc1ccc(CCC(=O)c2ccc(OC)c(CCC(C)C)c2O)cc1 [Specific Example 33, 1-(2-hydroxy-4-methoxy-3-isopentylphenyl)-3-(4-methoxyphenyl)-1-propanone]
inhibition in vivo at 100 mg/kg (gastric mucous membrane [1]; [11]): 40.1%
Mucous Membrane Damage Coefficient (gastric mucous membrane [1]; [12]): 3.3 mm

COc1ccc(CCC(=O)c2c(OC)cc(OC)c(CCC(C)C)c2OCC(=O)O)cc1 [Specific Example 35, 1-(2-carboxymethoxy-4,6-dimethoxy-3-isopentylphenyl)-3-(4-methoxyphenyl)-1-propanone]
inhibition in vivo at 35 mg/kg (gastric mucous membrane [1]; Rattus norvegicus, ip, 1 h, Table 1, 35 mg/kg i.p., vs control, read-out: Inhibition Ratio): 67.2%
inhibition in vivo at 100 mg/kg (gastric mucous membrane [1]; [4]): 81.2%
Mucous Membrane Damage Coefficient (gastric mucous membrane [1]; Table 1, 35 mg/kg i.p., control 102.6): 33.7 mm
Mucous Membrane Damage Coefficient (gastric mucous membrane [1]; [5]): 16.5 mm
Mucous Membrane Damage Coefficient (gastric mucous membrane [2]; Table 7, 100 mg/kg i.p., control 133.8): 65.8 mm
Inhibition Ratio (gastric mucous membrane [2]; Table 7, 100 mg/kg i.p.): 50.8%

CC(C)CCc1cc(CCC(=O)c2c(O)cc(O)c(CCC(C)C)c2O)ccc1O [Specific Example 37, 1-(2,4,6-trihydroxy-3-isopentylphenyl)-3-(4-hydroxy-3-isopentylphenyl)-1-propanone]
inhibition in vivo at 100 mg/kg (gastric mucous membrane [1]; [11]): 31.1%
Mucous Membrane Damage Coefficient (gastric mucous membrane [1]; [12]): 49.8 mm
